These results are taken from patent publication US20230365563A1, “QUINAZOLINE COMPOUND AND APPLICATION THEREOF” (SHANGHAI PHARMACEUTICALS HOLDING CO., LTD., priority 2020, published 2023).

Counter-ions that a name gives are not always drawn.

One experiment deals with T1, KRAS_G12D and cRAF (Homo sapiens, UniProt P01116, G12D).
T1 construct: purchased
Briefly: Inhibition of KRAS_G12D/cRAF binding (Cisbio binding kit, 665/615 ratio), Effect Embodiment B. To be noted: read-out: GTP-KRAS-G12D:CRAF IC50. The method, then: Similarly, the first dilution point of the compound to be tested was its storage solution, and the solution was 3-fold diluted, with 11+0 points of dilution. Echo was used to transfer 0.2 μL gradient diluted solution of the compounds into a 384-well plate, with 2 duplicated wells for each compound, and the final concentration of DMSO was 1%. The solution was centrifuged for 1 min at 1000 rpm/min.
IC50 of the compounds was fitted by Graphpad Prism 8 nonlinear regression equation: […]
The IC50 (half inhibitory concentration) of the compound was obtained by using the following nonlinear fitting formula: […]

In another experiment the target is T2, KRAS-G12D and SOS1 (Homo sapiens, UniProt P01116, G12D).
T2 construct: purchased
T2 sequence (P01116 1-188 isoform P01116-2 G12D): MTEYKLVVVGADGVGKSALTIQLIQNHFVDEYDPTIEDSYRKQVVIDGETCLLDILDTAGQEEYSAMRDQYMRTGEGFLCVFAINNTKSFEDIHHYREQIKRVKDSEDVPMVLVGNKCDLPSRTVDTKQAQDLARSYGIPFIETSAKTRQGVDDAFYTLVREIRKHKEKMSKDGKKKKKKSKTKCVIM
Briefly: Inhibition of KRAS-G12D/SOS1 binding (Cisbio binding kit, 665/615 ratio), Effect Embodiment A. To be noted: read-out: GTP-KRAS-G12D:SOS1 IC50. The method in brief: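 Compounds underwent 3-fold dilution from their storage solutions (11 points), were transferred to assay wells in duplicate with DMSO held at 1% final, and were briefly centrifuged.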

T1 sequence (P01116 1-188 isoform P01116-2 G12D): as above

A word on the IC50: it is the point on the concentration scale where inhibition reaches its midpoint. In the case of `CO[C@H](COc1nc(N2CC3CCC(C2)N3)c2cc(Cl)c(-c3cc(O)cc4ccccc34)c(F)c2n1)CN1C2CCC1COC2` (single isomer, unassigned) [Compound 184, (4R or S)-4-(2-((2S)-3-(3-oxa-8-azabicyclo[3.2.1]octan-8-yl)-2-methoxypropoxy)-4-((1R,5S)-3,8-diazabicyclo[3.2.1]octan-3-yl)-6-chloro-8-fluoroquinazolin-7-yl)naphthalen-2-ol diformate], the IC50 at KRAS_G12D and cRAF came to 461 nM; at KRAS-G12D and SOS1 it was 113 nM.

For the compound `Nc1cc(-c2c(Cl)cc3c(N4C[C@H]5CC[C@@H](C4)N5)nc(OCCCN4C5CCC4COC5)nc3c2F)c2ccccc2c1` (single isomer, unassigned) [Compound 192b, 4-((7S or 7R)-2-(3-(3-oxa-8-azabicyclo[3.2.1]octan-8-yl)propoxy)-4-((1R,5S)-3,8-diazabicyclo[3.2.1]octan-3-yl)-6-chloro-8-fluoroquinazolin-7-yl)naphthalen-2-amine tritrifluoroacetate], the IC50 stood at 431 nM at KRAS_G12D and cRAF; 186 nM at KRAS-G12D and SOS1.

As to `Oc1cc(-c2c(Cl)cc3c(N4CC5CCC(C4)N5)nc(OCC(CN4C5CCC4COC5)C4CC4)nc3c2F)c2ccccc2c1` (single isomer, unassigned) [Compound 209b, 4-((7S or 7R))-2-(2(S or R))-3-(3-oxa-8-azabicyclo[3.2.1]octan-8-yl)-2-cyclopropylpropoxy)-4-((1R,5S)-3,8-diazabicyclo[3.2.1]octan-3-yl)-6-chloro-8-fluoroquinazolin-7-yl)naphthalen-2-ol diformate], the IC50 on KRAS_G12D and cRAF is 293 nM; at KRAS-G12D and SOS1, 90.9 nM.

Consider `CN1CCC[C@H]1COc1nc(N2CCN(C(=O)CCN)[C@@H](CC#N)C2)c2cc(Cl)c(-c3cc(O)cc4ccccc34)c(F)c2n1` (single isomer, unassigned) [Compound 157, 2-((S)-1-(3-aminopropionyl)-4-((S or R)-6-chloro-8-fluoro-7-(3-hydroxynaphthalen-1-yl)-2-((S)-1-methylpyrrolidine-2-yl)methoxy)quinazolin-4-yl)-piperazin-2-yl)acetonitrile ditrifluoroacetate], for which the IC50 at KRAS-G12D and SOS1 was 316 nM.

Regarding `CN(C)C1CN(c2nc(C3(C(N)=O)CN(C(=N)N)C3)c3cc(Cl)c(-c4cc(O)cc5ccccc45)c(F)c3n2)C1` (single isomer, unassigned) [Compound 145, (R or S)-1-Carbamimidoyl-3-(6-chloro-2-(3-(dimethylamino)azetidin-1-yl)-8-fluoro-7-(3-hydroxynaphthalen-1-yl)quinazolin-4-yl)azetidin-3-carboxamide ditrifluoroacetate], the IC50 on KRAS-G12D and SOS1 stood at 5940 nM.

Regarding `Oc1cc(-c2c(Cl)cc3c(N4CC5CCC(C4)N5)nc(OC[C@@]45CCCN4C[C@H](F)C5)nc3c2F)c2c(F)c(F)ccc2c1` (single isomer, unassigned) [Compound 214b, 4-(R or S)-4-((1R,5S)-3,8-diazabicyclo[3.2.1]octane-3-yl)-6-chloro-8-fluoro-2-((2R,7aS)-2-fluorotetrahydro-1H-pyrrolidin-7a(5H)-yl) methoxy) quinazolin-7-yl)-5,6-difluoronaphthalen-2-ol diformate], on KRAS-G12D and SOS1, the IC50 is 2660 nM.

Regarding `CCCN(C)CCOc1nc(N2C[C@H]3CC[C@@H](C2)N3)c2cc(Cl)c(-c3cc(O)cc4ccccc34)c(F)c2n1` (single isomer, unassigned) [Compound 126, (S or R)-4-(4-((1R,5S)-3,8-diazabicyclo[3.2.1]octan-3-yl)-6-chloro-8-fluoro-2-(2-(methyl(propyl)amino)ethoxy)quinazolin-7-yl)naphthalen-2-ol dihydrochloride], the IC50 on KRAS-G12D and SOS1 came to 134 nM.
